This is an account of results in patent publication US20240254138A1, “TRICYCLIC PYRIMIDINES AS CYCLIN-DEPENDENT KINASE 7 (CDK7) INHIBITORS” (JANSSEN PHARMACEUTICA NV, priority 2021, published 2024).

Like-named read-outs stand apart in the source and are kept apart here.

Assay [1] has as its system RNA Polymerase II Serine 5 phosphorylation (Rpb1 CTD, downstream substrate of CDK7) in A549 cells. Briefly: Imaging-based cellular RNA PolII Ser5 phosphorylation assay in A549 cells. It is filed as cell-based, human. As to conditions: wild-type CDK7, RNA PolII Ser5 phosphorylation, averaged over all measurements; for IC50: Homo sapiens, A549, A549 cells, read-out: CDK7_A549 Wild-type CDK7 (pIC50) (converted); for CDK7_A549 Wild-type CDK7 (pIC50): A549 cells. In outline: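 A549 cells, seeded 1000/well in DMEM with 1% FBS and cultured 20 h, were treated with compound for 3 h at 37 °C. Ser5-phospho-Rpb1 CTD detected by immunofluorescence imaging after fixation and methanol permeabilization; IC50 from curve fit normalized to DMSO and 10 μM reference-compound controls.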

Assay [2] relates to RNA Polymerase II Serine 5 phosphorylation in A549 cells overexpressing CDK7-mutant (C312S). Description: Imaging-based cellular RNA PolII Ser5 phosphorylation assay in A549 cells overexpressing CDK7-mutant (C312S). Type of assay: cell-based, human. The note with it: RNA PolII Ser5 phosphorylation, averaged over all measurements; for IC50: Homo sapiens, A549, A549 cells overexpressing CDK7-mutant (C312S), read-out: CDK7_A549 mutant hCDK7(pIC50) (converted); for CDK7_A549 mutant hCDK7(pIC50): A549 cells overexpressing CDK7-mutant (C312S). An outline of the steps: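 A549 cells overexpressing CDK7 C312S (with endogenous wild-type CDK7) were treated with compound for 3 h at 37 °C in 1% FBS medium. Phospho-Rpb1 CTD Ser5 was immunostained after fixation and imaged. IC50 came from curve fit of % control, normalised to DMSO and 10 μM reference-compound controls.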

Assay [3] addresses CDK7/cyclinH/MAT1 trimeric complex (Homo sapiens, UniProt P50613). Briefly: In vitro CDK7 assay, potency of irreversible covalent inhibitors (kinact/KI), coupled PK/LDH ADP readout at 340 nm. The note with it: for Ki: CDK7 (20 nM enz.) (KI, μM); for Ki / CDK7 (20 nM enz.) (kinact, s^−1) / CDK7 (20 nM enz.) (kinact/KI, M^−1*s^−1): 20 nM enzyme; for kinact: read-out: CDK7 (20 nM enz.) (kinact, s^−1), 20 nM enzyme.

[4] abbreviates: read-out: CDK7 (20 nM enz.) (kinact/KI, M^−1*s^−1), 20 nM enzyme.
Where [5] appears, read: read-out: CDK7 (20 nM enz.) (kobs/[I], M^−1*s^−1), 20 nM enzyme.

Sequence of CDK7/cyclinH/MAT1 trimeric complex (P50613 whole entry): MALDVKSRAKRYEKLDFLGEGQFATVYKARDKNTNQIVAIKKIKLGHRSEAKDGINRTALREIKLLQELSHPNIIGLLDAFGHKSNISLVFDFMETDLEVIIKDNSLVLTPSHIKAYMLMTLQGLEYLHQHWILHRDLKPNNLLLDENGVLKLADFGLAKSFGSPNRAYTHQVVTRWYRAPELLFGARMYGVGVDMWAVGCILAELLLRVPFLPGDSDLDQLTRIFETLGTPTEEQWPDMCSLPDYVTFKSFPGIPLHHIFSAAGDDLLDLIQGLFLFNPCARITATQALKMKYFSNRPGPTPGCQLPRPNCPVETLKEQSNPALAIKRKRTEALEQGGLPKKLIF
Sequence of CDK7/cyclinH/MAT1 trimeric complex (P51946 whole entry partner): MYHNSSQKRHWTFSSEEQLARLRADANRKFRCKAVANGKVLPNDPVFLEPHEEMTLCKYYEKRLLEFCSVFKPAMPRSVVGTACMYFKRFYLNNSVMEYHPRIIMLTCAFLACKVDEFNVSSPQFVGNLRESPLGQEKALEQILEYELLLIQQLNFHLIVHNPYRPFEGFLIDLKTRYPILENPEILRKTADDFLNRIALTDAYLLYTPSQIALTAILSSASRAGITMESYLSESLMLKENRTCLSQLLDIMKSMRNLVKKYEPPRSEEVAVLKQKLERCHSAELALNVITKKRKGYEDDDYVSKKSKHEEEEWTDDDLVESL
Sequence of CDK7/cyclinH/MAT1 trimeric complex (P51948 whole entry partner): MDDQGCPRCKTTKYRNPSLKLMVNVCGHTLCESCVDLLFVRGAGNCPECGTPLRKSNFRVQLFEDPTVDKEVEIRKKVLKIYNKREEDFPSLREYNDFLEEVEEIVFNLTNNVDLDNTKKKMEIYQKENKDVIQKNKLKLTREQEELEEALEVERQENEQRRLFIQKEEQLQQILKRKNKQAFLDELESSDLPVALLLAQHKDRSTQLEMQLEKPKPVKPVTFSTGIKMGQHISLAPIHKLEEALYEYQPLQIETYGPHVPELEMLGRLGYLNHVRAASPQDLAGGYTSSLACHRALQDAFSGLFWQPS

Usually kinact stands for the maximal first-order rate at which the target is inactivated. For the molecule `CC#CC(=O)N1CC[C@@H](N2CC(c3cc4c(c(C5CC5)n3)OCc3c(N5CCOCC5)ccnc3N4)C2)C1` (single isomer, unassigned) [Compound 425], the IC50 in assay [1] is 200 nM. In assay [2], the IC50 is over 10000 nM. Moreover, in assay [3], the Ki is 0.0971 µM and the inactivation rate constant (kinact) came to 2.48e-05 s⁻¹. Moreover, the kinact/KI in assay [3] (setting [4]) was 255 M⁻¹ s⁻¹.
With `CC#CC(=O)N1CCC(N2CCC(c3cc4c(c(C)n3)O[C@@H](C)c3c(N5CCOCC5)ccnc3N4)CC2)CC1` (single isomer, unassigned) [Compound 426], the IC50 in assay [1] was 63.1 nM. Besides, the IC50 in assay [2] was over 10000 nM. Further, in assay [3], the Ki is 0.642 µM and the kinact stood at 4.43e-05 s⁻¹. In assay [3] (setting [4]), the kinact/KI amounted to 69 M⁻¹ s⁻¹.
Regarding `C=CC(=O)N1CC[C@@H](N2CC(c3cc4c(c(C5CC5)n3)OCc3c(N5CCOCC5)ccnc3N4)C2)C1` (single isomer, unassigned) [Compound 427], the “CDK7_A549 Wild-type CDK7 (pIC50)” value in assay [1] is given as 6.99. Moreover, the “CDK7_A549 mutant hCDK7(pIC50)” value in assay [2] is on record as under 5. In assay [3], the “CDK7 (20 nM enz.) (kinact, s^−1)” value was found to be 7.839e-05 s⁻¹; the “CDK7 (20 nM enz.) (kinact/KI, M^−1*s^−1)” value is 1751.84 M⁻¹ s⁻¹; the Ki was found to be 0.0447 µM.
On to `CC#CC(=O)N1CCC(N2CC[C@@H](c3cc4c(c(C)n3)OCc3c(N5CCOCC5)ccnc3N4)C2)CC1` (single isomer, unassigned) [Compound 433], for which the IC50 in assay [1] is 170 nM. Besides, in assay [2], the IC50 was 5370 nM. Also, in assay [3], the Ki turned out to be 0.185 µM and the kinact was determined as 1.89e-05 s⁻¹. Also, the kinact/KI in assay [3] (setting [4]) worked out at 102 M⁻¹ s⁻¹.
Take `CC#CC(=O)N1CC(n2cc(-c3cc4c(c(C)n3)O[C@@H](C)c3c(N5CCOCC5)ccnc3N4)cn2)C1` (single isomer, unassigned) [Compound 437]: the IC50 in assay [1] was 170 nM; in assay [2], over 10000 nM. Besides, the Ki in assay [3] is 0.0822 µM. Further, the maximal inactivation rate constant (kinact) in assay [3] turned out to be 2.31e-05 s⁻¹. Further, the kinact/KI in assay [3] (setting [4]) amounted to 282 M⁻¹ s⁻¹.
For `CC#CC(=O)N1CC(N2CC(c3cc4c(c(C)n3)O[C@H](C)c3c(N5CCOCC5)ccnc3N4)C2)C1` (single isomer, unassigned) [Compound 440], the “CDK7_A549 Wild-type CDK7 (pIC50)” value in assay [1] was 6.79. The “CDK7_A549 mutant hCDK7(pIC50)” value in assay [2] is under 5. Also, in assay [3], the “CDK7 (20 nM enz.) (kinact, s^−1)” value is 0.000050424 s⁻¹; the “CDK7 (20 nM enz.) (kinact/KI, M^−1*s^−1)” value is 246.333 M⁻¹ s⁻¹; the Ki amounted to 0.205 µM.
In the case of `CC#CC(=O)N1CC(N2CCC(c3cc(C#N)c4c(c3)Nc3nccc(N5CCOCC5)c3[C@H](C)O4)CC2)C1` (single isomer, unassigned) [Compound 442], in assay [1], the IC50 was 562 nM. The IC50 in assay [2] is over 10000 nM. In addition, in assay [3], the Ki was found to be 0.772 µM and the kinact stood at 3.46e-05 s⁻¹. The kinact/KI in assay [3] (setting [4]) turned out to be 44.8 M⁻¹ s⁻¹.
As to `CC#CC(=O)N1CC(N2CCC(c3cc(C#N)c4c(c3)Nc3nccc(N5CCOCC5)c3C(C)O4)CC2)C1` (single isomer, unassigned) [Compound 443], the results for the IC50 in assay [1] and in assay [2] were 20.4 nM and 4270 nM, respectively. The kinact/KI in assay [3] (setting [5]) was 1430 M⁻¹ s⁻¹.
On to `C=CC(=O)N1CC[C@@H](N2CC(c3cc4c(c(C5CC5)n3)OCc3c(C5CCOCC5)ccnc3N4)C2)C1` (single isomer, unassigned) [Compound 445], for which the IC50 was 123 nM in assay [1] and 8510 nM in assay [2]. For the same molecule, the Ki in assay [3] worked out at 0.0844 µM. The kinact in assay [3] is 6.94e-05 s⁻¹. Also, in assay [3] (setting [4]), the kinact/KI was 823 M⁻¹ s⁻¹.
For `C=CC(=O)N1CC[C@H](N2CC(c3cc4c(c(C5CC5)n3)OCc3c(N5CCOCC5)ccnc3N4)C2)C1` (single isomer, unassigned) [Compound 447], the “CDK7_A549 Wild-type CDK7 (pIC50)” value in assay [1] turned out to be 6.77. Moreover, the “CDK7_A549 mutant hCDK7(pIC50)” value in assay [2] is recorded as about 5. Moreover, in assay [3], the “CDK7 (20 nM enz.) (kinact, s^−1)” value worked out at 7.882e-05 s⁻¹; the “CDK7 (20 nM enz.) (kinact/KI, M^−1*s^−1)” value was 551.654 M⁻¹ s⁻¹; the Ki came to 0.143 µM.
Consider `CC#CC(=O)N1CC(n2cc(-c3cc(C#N)c4c(c3)Nc3nccc(N5CCOCC5)c3[C@H](C)O4)cn2)C1` (single isomer, unassigned) [Compound 449], for which the values for the IC50 in assay [1] and in assay [2] were 33.1 nM and 2340 nM, respectively. Also, the kinact/KI in assay [3] (setting [5]) worked out at 328 M⁻¹ s⁻¹.
For the molecule `C=CC(=O)N1CC(N2CC[C@H](c3cc4c(c(C)n3)OCc3c(N5CCOCC5)ccnc3N4)N(C)CC2)C1` (single isomer, unassigned) [Compound 452], the IC50 in assay [1] was 64.6 nM. Also, the IC50 in assay [2] is 6920 nM. Moreover, in assay [3], the Ki was 0.0493 µM and the kinact was found to be 4.92e-05 s⁻¹. For the same molecule, the kinact/KI in assay [3] (setting [4]) is 997 M⁻¹ s⁻¹.
For `C=CC(=O)N1CC(N2CC[C@@H](c3cc4c(c(C)n3)OCc3c(N5CCOCC5)ccnc3N4)N(C)CC2)C1` (single isomer, unassigned) [Compound 454], in that order: 257 nM, over 10000 nM, 0.245 µM, 5.68e-05 s⁻¹ and 232 M⁻¹ s⁻¹.
Regarding `C=CC(=O)N1CC[C@H](N2CC(c3cc4c(c(C)n3)O[C@H](C)c3c(N5CCOCC5)ccnc3N4)C2)C1` (single isomer, unassigned) [Compound 455], the IC50 is 91.2 nM in assay [1] and over 10000 nM in assay [2]. For the same molecule, the kinact/KI in assay [3] (setting [4]) turned out to be 179 M⁻¹ s⁻¹.
As to `C=CC(=O)N1CC[C@@H](N2CC(c3cc4c(c(C)n3)O[C@@H](C)c3c(N5CCOCC5)ccnc3N4)C2)C1` (single isomer, unassigned) [Compound 456], the IC50 in assay [1] was 2880 nM. Besides, the IC50 in assay [2] is over 10000 nM. Moreover, in assay [3], the Ki worked out at 24.6 µM and the kinact is 0.000114 s⁻¹. In addition, the kinact/KI in assay [3] (setting [4]) is 4.65 M⁻¹ s⁻¹.
For the molecule `C=CC(=O)N1CC[C@@H](N2CC(c3cc4c(c(C)n3)O[C@H](C)c3c(N5CCOCC5)ccnc3N4)C2)C1` (single isomer, unassigned) [Compound 457], the results for the IC50 in assay [1] and in assay [2] were 91.2 nM and over 10000 nM, respectively. Besides, the Ki in assay [3] is 0.214 µM. Also, in assay [3], the kinact was determined as 0.000104 s⁻¹. Further, in assay [3] (setting [4]), the kinact/KI was 485 M⁻¹ s⁻¹.
As for `C=CC(=O)N1CC[C@H](N2CC(c3cc4c(c(C)n3)O[C@@H](C)c3c(N5CCOCC5)ccnc3N4)C2)C1` (single isomer, unassigned) [Compound 458], in assay [1], the IC50 is 5250 nM. In addition, the IC50 in assay [2] is over 10000 nM. Further, in assay [3], the Ki came to 19.2 µM and the kinact was found to be 6.89e-05 s⁻¹. Further, the kinact/KI in assay [3] (setting [4]) was found to be 3.59 M⁻¹ s⁻¹.
With `C=CC(=O)N1CC[C@H](N2CC(c3cc(C#N)c4c(c3)Nc3nccc(N5CCOCC5)c3[C@@H](C)O4)C2)C1` (single isomer, unassigned) [Compound 459], the figures for the IC50 in assay [1] and in assay [2] were 72.4 nM and 4370 nM, respectively. Also, the kinact/KI in assay [3] (setting [5]) was 734 M⁻¹ s⁻¹.
On to `C=CC(=O)N1CC[C@H](N2CC(c3cc(C#N)c4c(c3)Nc3nccc(N5CCOCC5)c3[C@H](C)O4)C2)C1` (single isomer, unassigned) [Compound 460], for which the IC50 in assay [1] is 1290 nM; in assay [2], over 10000 nM. Further, in assay [3] (setting [4]), the kinact/KI was 14.4 M⁻¹ s⁻¹.
The corresponding values for `C=CC(=O)N1CC[C@@H](N2CC(c3cc(C#N)c4c(c3)Nc3nccc(N5CCOCC5)c3[C@H](C)O4)C2)C1` (single isomer, unassigned) [Compound 461] are 692 nM, over 10000 nM and 16.1 M⁻¹ s⁻¹.
Regarding `C=CC(=O)N1CC[C@@H](N2CC(c3cc(C#N)c4c(c3)Nc3nccc(N5CCOCC5)c3[C@@H](C)O4)C2)C1` (single isomer, unassigned) [Compound 462], the IC50 is 50.1 nM in assay [1] and 5250 nM in assay [2]. The kinact/KI in assay [3] (setting [4]) was determined as 509 M⁻¹ s⁻¹.
On to `C=CC(=O)N1CC[C@H](N2CC(c3cc4c(c(C5CC5)n3)O[C@H](C)c3c(N5CCOCC5)ccnc3N4)C2)C1` (single isomer, unassigned) [Compound 463], for which the IC50 in assay [1] was 1050 nM; in assay [2] it was over 10000 nM. In addition, the Ki in assay [3] was 0.423 µM. In addition, in assay [3], the inactivation rate constant (kinact) turned out to be 3.44e-05 s⁻¹. Moreover, in assay [3] (setting [4]), the kinact/KI stood at 81.3 M⁻¹ s⁻¹.
For `CC#CC(=O)N1CC[C@@H](N2CC(c3cc4c(c(C5CC5)n3)O[C@H](C)c3c(N5CCOCC5)ccnc3N4)C2)C1` (single isomer, unassigned) [Compound 464], in that order: 7590 nM, over 10000 nM, 4.03 µM, 2.27e-05 s⁻¹ and 5.64 M⁻¹ s⁻¹.
The corresponding values for `C=CC(=O)N1CCC(N2CC(c3cc4c(c(C)n3)O[C@H](C)c3c(C5CCOCC5)ccnc3N4)C2)CC1` (single isomer, unassigned) [Compound 465] are 72.4 nM, 7080 nM, 0.0329 µM, 2.79e-05 s⁻¹ and 848 M⁻¹ s⁻¹.
